Experiment: Solubility in the Receptor Fluid (60/40 methanol/water, pH 4)
Format: physicochemical
Details: 60 vol. %/40 vol % methanol/water at pH 4 with 0.01 wt % NaN3
Protocol: Receptor Fluid: The receptor fluid consisted of 60 vol. %/40 vol % methanol/water at pH 4 with 0.01 wt % NaN3 (added as a preservative). […] After mixing and degassing the Receptor Fluid it was filtered through a ZapCap CR 0.2 μm membrane under vacuum; the Receptor Fluid, so filtered, was stirred for an additional 20 minutes under vacuum.

With `CC(=O)O[C@@]12CO[C@@H]1C[C@H](O)[C@@]1(C)C(=O)[C@H](O)C3=C(C)[C@@H](OC(=O)[C@H](O)[C@@H](NC(=O)OC(C)(C)C)c4ccccc4)C[C@@](O)([C@@H](OC(=O)c4ccccc4)[C@H]21)C3(C)C` [Docetaxel Raw Material, docetaxel] the “solubility in the Receptor Fluid” value was “sufficient to maintain sink conditions”.

From patent US12128131B2, “Treatment of epithelial cysts by intracystic injection of antineoplastic particles” (CRITITECH, INC., priority 2017, dated 2024)
